Experimental findings from patent US20260209223A1, “FGFR3 INHIBITOR COMPOUNDS” (TYRA BIOSCIENCES, INC., priority 2022, published 2026) are described below.

One test has as its target T1, Ba/F3 BCR-FGFR1 (Homo sapiens, UniProt P11362).
T1 construct: BCR (fusion partner); host or cells: Ba/F3; the other entry of the earlier key: BCR (P11274, Breakpoint cluster region protein)
The test can be described thus: Ba/F3 cell viability assay (CellTiter-Glo 2.0). It counts as cell-based. The note with it: Ba/F3 cell data, BCR-FGFR1 fusion, 48 hours.

The next test has as its target T2, FGFR3 (Homo sapiens, UniProt P22607).
T2 construct: made in house; host or cells: E. coli (BL21-derived) infected with T7 phage
In words: Kinase binding assay (Kd), kinase-tagged T7 phage, affinity beads, qPCR. The following applies: in vitro binding assay, 11-point 3-fold dilution series. For orientation: Real-time PCR tracks product formation cycle by cycle.

The target of a further test is T3, FGFR3 (V555M) (Homo sapiens, UniProt P22607, V555M).
T3 construct: made in house; host or cells: E. coli (BL21-derived) infected with T7 phage
T3 sequence (P22607 23-806 V555M): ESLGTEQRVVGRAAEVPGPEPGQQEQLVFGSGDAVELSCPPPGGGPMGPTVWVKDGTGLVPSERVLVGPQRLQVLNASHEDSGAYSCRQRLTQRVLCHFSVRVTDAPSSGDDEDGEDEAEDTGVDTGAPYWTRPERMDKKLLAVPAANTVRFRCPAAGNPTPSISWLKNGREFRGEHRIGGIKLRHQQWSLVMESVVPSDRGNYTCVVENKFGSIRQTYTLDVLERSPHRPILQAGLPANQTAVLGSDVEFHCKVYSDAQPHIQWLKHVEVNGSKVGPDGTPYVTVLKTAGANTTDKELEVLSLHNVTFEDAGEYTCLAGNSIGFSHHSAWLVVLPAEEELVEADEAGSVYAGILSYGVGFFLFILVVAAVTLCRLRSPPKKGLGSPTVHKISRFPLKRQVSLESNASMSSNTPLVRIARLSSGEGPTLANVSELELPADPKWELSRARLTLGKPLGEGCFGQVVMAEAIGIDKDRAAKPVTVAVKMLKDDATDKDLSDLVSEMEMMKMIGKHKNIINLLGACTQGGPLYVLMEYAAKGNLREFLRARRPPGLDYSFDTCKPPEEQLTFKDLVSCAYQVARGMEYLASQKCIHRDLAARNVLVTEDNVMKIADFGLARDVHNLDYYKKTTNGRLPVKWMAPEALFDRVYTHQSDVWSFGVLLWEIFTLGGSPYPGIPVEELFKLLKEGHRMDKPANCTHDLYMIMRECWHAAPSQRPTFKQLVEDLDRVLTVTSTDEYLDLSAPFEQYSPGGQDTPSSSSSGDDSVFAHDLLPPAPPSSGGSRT
Described as above. The note with it: in vitro binding assay, 11-point 3-fold dilution series.

Another test deals with T4, FGFR4 (Homo sapiens, UniProt P22455).
T4 construct: made in house; host or cells: E. coli (BL21-derived) infected with T7 phage
T4 sequence (P22455 22-802): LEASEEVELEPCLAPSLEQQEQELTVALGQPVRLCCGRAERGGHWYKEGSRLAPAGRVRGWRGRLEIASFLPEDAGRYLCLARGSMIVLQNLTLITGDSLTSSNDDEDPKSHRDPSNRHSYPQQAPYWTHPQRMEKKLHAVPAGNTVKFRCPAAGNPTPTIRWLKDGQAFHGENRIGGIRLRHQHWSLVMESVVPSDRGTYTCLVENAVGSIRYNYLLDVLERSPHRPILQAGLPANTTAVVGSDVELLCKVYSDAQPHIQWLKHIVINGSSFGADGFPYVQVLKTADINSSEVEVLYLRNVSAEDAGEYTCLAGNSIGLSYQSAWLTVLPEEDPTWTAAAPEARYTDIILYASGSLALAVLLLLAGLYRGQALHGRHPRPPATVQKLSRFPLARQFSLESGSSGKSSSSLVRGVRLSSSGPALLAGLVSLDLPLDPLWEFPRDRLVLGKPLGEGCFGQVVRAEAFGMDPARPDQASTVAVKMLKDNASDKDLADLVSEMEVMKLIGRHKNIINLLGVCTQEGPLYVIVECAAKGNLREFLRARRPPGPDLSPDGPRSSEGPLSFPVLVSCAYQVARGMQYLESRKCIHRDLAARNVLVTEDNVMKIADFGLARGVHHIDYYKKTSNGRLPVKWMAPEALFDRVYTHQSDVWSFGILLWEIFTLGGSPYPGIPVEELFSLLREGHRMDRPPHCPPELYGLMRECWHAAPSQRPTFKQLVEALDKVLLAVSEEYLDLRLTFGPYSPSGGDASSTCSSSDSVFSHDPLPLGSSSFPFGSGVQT
The test is described as above. The note with it: in vitro binding assay, 11-point 3-fold dilution series.

A further test concerns the target T5, FGFR1 (Homo sapiens, UniProt P11362).
T5 construct: made in house; host or cells: E. coli (BL21-derived) infected with T7 phage
The test is described as above. The following applies: in vitro binding assay, 11-point 3-fold dilution series.

Another test has as its target T6, FGFR2 (Homo sapiens, UniProt P21802).
T6 construct: made in house; host or cells: E. coli (BL21-derived) infected with T7 phage
Described as above. The note with it: in vitro binding assay, 11-point 3-fold dilution series.

The next test concerns the target T7, Ba/F3 BCR-FGFR2 (Homo sapiens, UniProt P21802).
T7 construct: BCR (fusion partner); host or cells: Ba/F3; the other entry of the earlier key: BCR (P11274, Breakpoint cluster region protein)
The test can be described thus: Ba/F3 cell viability assay (CellTiter-Glo 2.0). It counts as cell-based. The note with it: Ba/F3 cell data, BCR-FGFR2 fusion, 48 hours. For orientation: In ATP-based viability assays light output follows the ATP content of the culture.

The target in the next test is T8, Ba/F3 FGFR3-BAIAP2L1 (Homo sapiens, UniProt P22607).
T8 construct: BAIAP2L1 (fusion partner, Q9UHR4 if human); host or cells: Ba/F3; the other entry of the earlier key: BAIAP2L1 (Q9UHR4, BAR/IMD domain-containing adapter protein 2-like 1)
T8 sequence (P22607 397-758 limits assumed): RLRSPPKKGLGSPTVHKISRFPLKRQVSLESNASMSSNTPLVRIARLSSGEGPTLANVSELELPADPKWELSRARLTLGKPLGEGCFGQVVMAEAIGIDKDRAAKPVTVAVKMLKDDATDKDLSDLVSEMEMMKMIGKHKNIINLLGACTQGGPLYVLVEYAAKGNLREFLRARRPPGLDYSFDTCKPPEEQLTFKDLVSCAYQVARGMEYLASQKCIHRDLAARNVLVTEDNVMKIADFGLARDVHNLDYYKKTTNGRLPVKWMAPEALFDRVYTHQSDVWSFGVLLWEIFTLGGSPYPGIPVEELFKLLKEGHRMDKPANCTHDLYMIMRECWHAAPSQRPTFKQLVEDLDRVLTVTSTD
The test can be described thus: Ba/F3 cell viability assay (CellTiter-Glo 2.0). Type of test: cell-based. The following applies: Ba/F3 cell data, FGFR3-BAIAP2L1 fusion, 48 hours.

A further test deals with RT112/84. The test can be described thus: Cancer cell line cell viability assay (CellTiter-Glo 2.0). It counts as cell-based. The following applies: Homo sapiens; RT112/84 (FGFR3-fusion) cell viability, 72 hours. The source says:
(§1) Experimental Purpose: To detect the change of intracellular ATP by Cell Titer-Glo® and to evaluate the inhibitory effect of the compounds on cancer cell lines by determining the in vitro IC50 value of the compounds.
(§2) Cell Titer-Glo® 2.0 Luminescent cell viability assay reagent was purchased from Promega (Madison, WI). RT112/84 and KG-1 cell lines were purchased from American Type Culture Collection (Manassas, VA). UM-UC-14 cell line was purchased from Sigma (St. Louis, MO). RT112/84, UM-UC-14, and KG-1 cells were cultured in RPMI1640 media supplemented with 10% fetal bovine serum. Cultures were maintained at 37° C. in a humidified atmosphere of 5% CO2 and 95% air.
(§3) Cell Viability Assay Procedure: Cells were plated in 96-well clear bottom/white plates (Corning #3903) at 10,000 cells/well in 100 μl of media, incubated overnight. The next day, test compound DMSO stock solutions were made at 10 mM and 2 μM final concentration.
(§4) Compounds were then added to cells in a 9-dose, […] dilution series starting at 30 μM with an HP 300e Digital Dispenser (each dose was applied in triplicate). DMSO was backfilled to each well up to 301 nL total volume of test compound+DMSO, and a total of 301 nL DMSO was added to a control/no test compound well in triplicate. The cells in cell culture plates were incubated with the compounds at 37° C. and 5% CO2 for 72 hours. Then 50 μl of Cell Titer Glo 2.0 reagent was added to each well of the cell culture plates. The contents were covered from light and mixed on an orbital shaker at room temperature for 10 min.
(§5) Luminescence was recorded by a Synergy H1 Microplate Reader (Biotek, Winooski, VT). Cells were assessed as a percentage of DMSO only treated control cells. Curves were plotted and IC50 values were calculated using the GraphPad Prism 8 program based on a sigmoidal dose-response equation (4 parameter).

For the next test, the system named is KG-1. Described as above. Type of test: cell-based. The following applies: Homo sapiens; KG-1 (FGFR1-fusion) cell viability, 72 hours.
Description: as §1, §2, §3, §4, §5

In a further test the test system is KatoIIII. Described as above. It counts as cell-based. The following applies: 72 hours.
The target in a further test is T9, Ba/F3 ETV5-FGFR4 (Homo sapiens, UniProt P22455).
T9 construct: host or cells: Ba/F3; the other entry of the earlier key: ETV5 (P41161, ETS translocation variant 5)
T9 sequence (P22455 467-755 limits assumed): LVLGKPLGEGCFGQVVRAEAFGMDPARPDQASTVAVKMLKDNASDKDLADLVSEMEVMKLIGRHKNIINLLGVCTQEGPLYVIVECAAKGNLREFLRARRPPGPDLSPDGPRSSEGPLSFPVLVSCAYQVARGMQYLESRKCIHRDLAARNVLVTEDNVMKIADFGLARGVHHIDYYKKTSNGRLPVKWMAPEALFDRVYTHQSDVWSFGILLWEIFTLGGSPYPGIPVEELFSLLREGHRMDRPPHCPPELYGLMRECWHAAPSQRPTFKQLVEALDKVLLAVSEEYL
The test can be described thus: Ba/F3 cell viability assay (CellTiter-Glo 2.0). Type of test: cell-based. The note with it: Ba/F3 cell data, ETV5-FGFR4 fusion, 48 hours.

By Kd is commonly meant the constant that tells how readily two partners part at equilibrium. The term IC50 denotes the concentration at which inhibition is half-maximal.

T2 sequence (P22607 23-806): as the sequence (P22607 23-806 V555M) above, with M533V counted along it
T6 sequence (P21802 22-821): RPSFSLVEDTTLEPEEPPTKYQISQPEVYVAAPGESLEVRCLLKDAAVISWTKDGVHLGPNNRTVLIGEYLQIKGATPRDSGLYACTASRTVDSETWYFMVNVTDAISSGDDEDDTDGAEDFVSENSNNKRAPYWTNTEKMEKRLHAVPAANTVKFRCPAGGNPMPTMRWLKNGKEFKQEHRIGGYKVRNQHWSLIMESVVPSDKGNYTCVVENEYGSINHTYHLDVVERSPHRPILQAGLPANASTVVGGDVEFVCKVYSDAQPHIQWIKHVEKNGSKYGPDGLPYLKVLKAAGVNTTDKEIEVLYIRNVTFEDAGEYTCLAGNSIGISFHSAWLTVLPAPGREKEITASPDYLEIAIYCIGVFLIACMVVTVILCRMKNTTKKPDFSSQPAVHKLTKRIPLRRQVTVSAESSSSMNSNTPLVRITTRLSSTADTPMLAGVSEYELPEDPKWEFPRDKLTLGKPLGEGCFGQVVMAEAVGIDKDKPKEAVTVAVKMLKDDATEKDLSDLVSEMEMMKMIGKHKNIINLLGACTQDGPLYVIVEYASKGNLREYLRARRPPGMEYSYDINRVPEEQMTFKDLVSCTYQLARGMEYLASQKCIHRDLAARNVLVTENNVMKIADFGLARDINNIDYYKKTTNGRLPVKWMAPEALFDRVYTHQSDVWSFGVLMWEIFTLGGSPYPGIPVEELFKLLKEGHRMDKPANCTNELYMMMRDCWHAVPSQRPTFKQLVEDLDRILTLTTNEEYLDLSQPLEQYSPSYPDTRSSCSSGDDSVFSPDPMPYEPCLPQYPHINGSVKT
T5 sequence (P11362 22-822): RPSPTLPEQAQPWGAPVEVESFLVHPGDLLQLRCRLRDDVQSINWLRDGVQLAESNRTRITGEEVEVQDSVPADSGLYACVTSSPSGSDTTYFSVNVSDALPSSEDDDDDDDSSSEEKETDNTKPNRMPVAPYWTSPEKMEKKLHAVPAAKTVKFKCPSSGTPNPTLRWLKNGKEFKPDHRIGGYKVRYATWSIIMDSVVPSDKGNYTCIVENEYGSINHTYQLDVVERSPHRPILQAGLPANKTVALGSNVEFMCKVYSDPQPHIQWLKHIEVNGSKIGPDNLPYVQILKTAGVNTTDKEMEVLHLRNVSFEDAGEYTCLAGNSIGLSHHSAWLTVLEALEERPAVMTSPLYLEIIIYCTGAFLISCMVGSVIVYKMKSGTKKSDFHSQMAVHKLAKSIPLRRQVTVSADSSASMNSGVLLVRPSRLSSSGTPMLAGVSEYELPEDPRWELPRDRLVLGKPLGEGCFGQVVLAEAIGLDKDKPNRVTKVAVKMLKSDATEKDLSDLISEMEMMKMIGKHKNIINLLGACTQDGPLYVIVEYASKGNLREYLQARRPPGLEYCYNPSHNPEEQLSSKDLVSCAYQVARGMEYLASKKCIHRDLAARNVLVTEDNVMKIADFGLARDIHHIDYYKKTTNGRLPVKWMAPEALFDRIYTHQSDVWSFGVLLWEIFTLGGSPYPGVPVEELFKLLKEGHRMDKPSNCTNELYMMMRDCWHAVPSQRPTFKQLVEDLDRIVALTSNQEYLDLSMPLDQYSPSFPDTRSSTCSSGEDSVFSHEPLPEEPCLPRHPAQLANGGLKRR
T7 sequence (P21802 481-770 limits assumed): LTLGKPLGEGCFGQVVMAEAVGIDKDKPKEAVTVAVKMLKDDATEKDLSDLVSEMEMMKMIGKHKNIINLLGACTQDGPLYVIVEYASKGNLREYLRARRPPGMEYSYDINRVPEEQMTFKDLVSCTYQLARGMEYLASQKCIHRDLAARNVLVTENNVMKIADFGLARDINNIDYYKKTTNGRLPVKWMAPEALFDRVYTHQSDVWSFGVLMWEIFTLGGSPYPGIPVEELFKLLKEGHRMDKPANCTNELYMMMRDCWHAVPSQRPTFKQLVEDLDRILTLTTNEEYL
T1 sequence (P11362 478-767 limits assumed): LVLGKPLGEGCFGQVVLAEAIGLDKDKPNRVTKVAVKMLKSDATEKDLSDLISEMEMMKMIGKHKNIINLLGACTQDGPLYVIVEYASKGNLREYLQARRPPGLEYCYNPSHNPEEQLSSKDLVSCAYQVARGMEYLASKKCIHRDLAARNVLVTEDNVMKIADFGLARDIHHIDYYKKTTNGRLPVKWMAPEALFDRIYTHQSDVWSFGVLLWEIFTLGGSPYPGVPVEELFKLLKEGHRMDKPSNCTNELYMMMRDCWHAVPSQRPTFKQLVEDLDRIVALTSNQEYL

On to `C=CC(=O)N1CCC2(CC1)CC(n1ncc(-c3cc(O[C@H](CO)c4ccccn4)c4c(C#N)cnn4c3)c1C)C2` [Example 8, (S)-6-(1-(7-acryloyl-7-azaspiro[3.5]nonan-2-yl)-5-methyl-1H-pyrazol-4-yl)-4-(2-hydroxy-1-(pyridin-2-yl)ethoxy)pyrazolo[1,5-a]pyridine-3-carbonitrile], for which the Kd at Ba/F3 BCR-FGFR1 was 100 to 250 nM; at FGFR3 it was 0.1 to 100 nM; on FGFR3 (V555M), 0.1 to 100 nM; on FGFR4, 0.1 to 100 nM; on FGFR1, 0.1 to 100 nM; at FGFR2, 0.1 to 100 nM. For the same compound, the Kd lay within 100 to 250 nM on Ba/F3 BCR-FGFR2, 0.1 to 100 nM at Ba/F3 FGFR3-BAIAP2L1 and 250 to 1000 nM at Ba/F3 ETV5-FGFR4. Moreover, the IC50 in the test on RT112/84, in the test on KG-1 and with KatoIIII was 100 to 250 nM in each case.

With `C=CC(=O)N1CCC2(CC1)CC(n1ncc(-c3cc(O[C@H](CO)c4ccc(F)cn4)c4c(C#N)cnn4c3)c1C)C2` [Example 9, (S)-6-(1-(7-acryloyl-7-azaspiro[3.5]nonan-2-yl)-5-methyl-1H-pyrazol-4-yl)-4-(1-(5-fluoropyridin-2-yl)-2-hydroxyethoxy)pyrazolo[1,5-a]pyridine-3-carbonitrile], the Kd on Ba/F3 BCR-FGFR1 was in the range of 250 to 1000 nM; on FGFR3, 0.1 to 100 nM; at FGFR3 (V555M) it was 0.1 to 100 nM; at FGFR4 it was 0.1 to 100 nM; on FGFR1, 0.1 to 100 nM; on FGFR2, 0.1 to 100 nM. Also, the Kd at Ba/F3 BCR-FGFR2 lay in the range of 100 to 250 nM; on Ba/F3 FGFR3-BAIAP2L1, 0.1 to 100 nM; at Ba/F3 ETV5-FGFR4, 250 to 1000 nM. In addition, the IC50 was 250 to 1000 nM with RT112/84, not below 1000 nM in the test on KG-1 and 250 to 1000 nM with KatoIIII.

Consider `C=CC(=O)N1CCC2(CC1)CC(n1nnc(-c3cc(O[C@H](CO)c4ccc(F)cn4)c4c(C#N)cnn4c3)c1C)C2` [Example 13, (S)-6-(1-(7-acryloyl-7-azaspiro[3.5]nonan-2-yl)-5-methyl-1H-1,2,3-triazol-4-yl)-4-(1-(5-fluoropyridin-2-yl)-2-hydroxyethoxy)pyrazolo[1,5-a]pyridine-3-carbonitrile], for which the Kd is 250 to 1000 nM on Ba/F3 BCR-FGFR1; 0.1 to 100 nM at FGFR3; 0.1 to 100 nM at FGFR3 (V555M); 0.1 to 100 nM on FGFR4; 0.1 to 100 nM on FGFR1; 0.1 to 100 nM at FGFR2. The dissociation constant (Kd) on Ba/F3 BCR-FGFR2 lay within 100 to 250 nM; at Ba/F3 FGFR3-BAIAP2L1, 0.1 to 100 nM; on Ba/F3 ETV5-FGFR4, 250 to 1000 nM. Further, the IC50 in the test with RT112/84 fell in the range of 100 to 250 nM; with KG-1, 0.1 to 100 nM; with KatoIIII it was 100 to 250 nM.

As to `C=CC(=O)N1CCC2(CC1)CC(n1ncc(-c3cc(OC(CO)c4ccn(C)n4)c4c(C#N)cnn4c3)c1C)C2` (stereo not drawn) [Example 14, 6-(1-(7-acryloyl-7-azaspiro[3.5]nonan-2-yl)-5-methyl-1H-pyrazol-4-yl)-4-(2-hydroxy-1-(1-methyl-1H-pyrazol-3-yl)ethoxy)pyrazolo[1,5-a]pyridine-3-carbonitrile], the Kd lay within 250 to 1000 nM at Ba/F3 BCR-FGFR1; 0.1 to 100 nM at FGFR3; 100 to 250 nM on FGFR3 (V555M); 100 to 250 nM at FGFR4; 100 to 250 nM on FGFR1; 0.1 to 100 nM on FGFR2. The Kd at Ba/F3 BCR-FGFR2 fell in the range of 250 to 1000 nM; on Ba/F3 FGFR3-BAIAP2L1, 0.1 to 100 nM; at Ba/F3 ETV5-FGFR4 it was 250 to 1000 nM. Further, the IC50 with RT112/84, in the test with KG-1 and with KatoIIII was 250 to 1000 nM in each case.

On to `C=CC(=O)N1CC(OC)(C(=O)N2CCC(n3nnc(-c4cc(O[C@H](CO)c5ccccn5)c5c(C#N)cnn5c4)c3C)CC2)C1` [Example 22, (S)-6-(1-(1-(1-acryloyl-3-methoxyazetidine-3-carbonyl)piperidin-4-yl)-5-methyl-1H-1,2,3-triazol-4-yl)-4-(2-hydroxy-1-(pyridin-2-yl)ethoxy)pyrazolo[1,5-a]pyridine-3-carbonitrile], for which the Kd on Ba/F3 BCR-FGFR1 was not below 1000 nM; at FGFR3, 0.1 to 100 nM; on FGFR3 (V555M), 0.1 to 100 nM; on FGFR4, 0.1 to 100 nM; on FGFR1 it was 0.1 to 100 nM; on FGFR2, 0.1 to 100 nM. Also, the results for the Kd on Ba/F3 BCR-FGFR2, at Ba/F3 FGFR3-BAIAP2L1 and on Ba/F3 ETV5-FGFR4 were not below 1000 nM, 0.1 to 100 nM and not below 1000 nM, respectively. In addition, the IC50 with RT112/84, in the test with KG-1 and in the test on KatoIIII was not below 1000 nM throughout.
